PMC9172056 (Journal of medicinal chemistry, 2022)
Read-outs that look alike come from different tables or passages of the source.

Assays:
SARS-CoV-2 3CL^pro = SARS-CoV-2 3CL^pro (Severe acute respiratory syndrome coronavirus 2, UniProt P0DTD1); experiment: biochemical; format: biochemical
[1] = system: entry of SARS-CoV-2 (pseudotyped lentivirus with S); experiment: organism not typed; format: cell-based; details: read-out: EC50 inhibition of SARS-CoV-2 entry
in vitro = details: cat
MERS-CoV 3CL^pro = MERS-CoV 3CL^pro (Middle East respiratory syndrome-related coronavirus, UniProt K9N7C7); experiment: biochemical
MERS-CoV 3CL^pro, sequence (K9N7C7 3248-3553 limits assumed): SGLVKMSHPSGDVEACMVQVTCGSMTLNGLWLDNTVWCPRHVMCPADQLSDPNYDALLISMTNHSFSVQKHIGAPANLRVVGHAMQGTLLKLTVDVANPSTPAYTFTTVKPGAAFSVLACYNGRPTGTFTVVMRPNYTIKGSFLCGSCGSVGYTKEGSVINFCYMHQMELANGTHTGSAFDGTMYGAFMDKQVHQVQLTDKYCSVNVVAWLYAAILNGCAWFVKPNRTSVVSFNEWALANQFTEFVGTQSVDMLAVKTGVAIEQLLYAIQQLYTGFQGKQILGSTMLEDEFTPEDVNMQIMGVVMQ

SARS-CoV-2 replicon [2] = format: cell-based; details: read-out: EC50 SARS-CoV-2 replicon assay
CRFK cells = details: cat
SARS-CoV-2 replicon [3] = details: read-out: EC50 SARS-CoV-2 replicon assay, previously reported; cited from earlier work

Molecule | fold lower IC50 than compound 1b (SARS-CoV-2 3CL^pro) [fold] | EC50 [1] [nM] | CC50 (in vitro) [nM] | IC50 (SARS-CoV-2 3CL^pro) [nM] | IC50 (MERS-CoV 3CL^pro) [nM] | fold better IC50 than the 12b/12c pair (SARS-CoV-2 3CL^pro) [fold] | fold more potent than 17b (SARS-CoV-2 3CL^pro) [fold] | EC50 (SARS-CoV-2 replicon [2]) [nM] | CC50 (CRFK cells) [nM] | EC50 (SARS-CoV-2 replicon [3]) [nM]
CC(C)C[C@H](NC(=O)OC1CC2(CCN(C(=O)OC(C)(C)C)CC2)C1)C(=O)N[C@H](C=O)C[C@H]1CCNC1=O [Compound 7b, tert-Butyl 2-((((S)-4-methyl-1-oxo-1-(((S)-1-oxo-3-((R)-2-oxopyrrolidin-3-yl)propan-2-yl)amino)pentan-2-yl)carbamoyl)oxy)-7-azaspiro[3.5]nonane-7-carboxylate] | > 9 | 2000 to 10000 | > 100000 |  |  |  |  |  |  | 
CC(C)C[C@H](NC(=O)OC1CC2(CCN(C(=O)OC(C)(C)C)CC2)C1)C(=O)N[C@@H](C[C@H]1CCNC1=O)C(O)S(=O)(=O)O (stereo partly drawn) [Compound 7c, Sodium (2S)-2-((S)-2-((((7-(tert-butoxycarbonyl)-7-azaspiro[3.5]nonan-2-yl)oxy)carbonyl)amino)-4-methylpentanamido)-1-hydroxy-3-((R)-2-oxopyrrolidin-3-yl)propane-1-sulfonate] |  | 2000 to 10000 | > 100000 | 290 ± 20 | 950 ± 210 |  |  |  |  | 
CC(C)C[C@H](NC(=O)OCC1CN(C(=O)OC(C)(C)C)C1)C(=O)N[C@H](C=O)C[C@H]1CCNC1=O [Compound 14b, tert-Butyl 3-(((((S)-4-methyl-1-oxo-1-(((S)-1-oxo-3-((R)-2-oxopyrrolidin-3-yl)propan-2-yl)amino)pentan-2-yl)carbamoyl)oxy)methyl)azetidine-1-carboxylate] |  | 2000 to 10000 | > 100000 |  |  | > 6 | 12 |  |  | 
CC(C)C[C@H](NC(=O)OCC1CN(C(=O)OC(C)(C)C)C1)C(=O)N[C@@H](C[C@H]1CCNC1=O)C(O)S(=O)(=O)[O-].[Na+] (stereo partly drawn) [Compound 14c, Sodium (2S)-2-((S)-2-((((1-(tert-butoxycarbonyl)azetidin-3-yl)methoxy)carbonyl)amino)-4-methylpentanamido)-1-hydroxy-3-((R)-2-oxopyrrolidin-3-yl)propane-1-sulfonate] |  | 2000 to 10000 | > 100000 | 500 ± 140 | 440 ± 60 | > 6 |  |  |  | 
[2H]C([2H])(OC(=O)N[C@@H](CC(C)C)C(=O)N[C@@H](C[C@H]1CCNC1=O)C(O)S(=O)(=O)[O-])C1CN(C(=O)OC(C)(C)C)C1.[Na+] (stereo partly drawn) [Compound 18c, Sodium (2S)-2-((S)-2-((((1-(tert-butoxycarbonyl)azetidin-3-yl)methoxy-d2)carbonyl)amino)-4-methylpentanamido)-1-hydroxy-3-((R)-2-oxopyrrolidin-3-yl)propane-1-sulfonate] |  |  | > 100000 | 340 ± 10 | 370 ± 60 |  |  |  |  | 
GC376 |  |  |  |  |  |  |  | 27 ± 10 | > 100000 | 20
